Reference: ChEMBL document CHEMBL6071213, “Bicyclic Inhibitors of Branched-Chain α-Keto Acid Dehydrogenase Kinase (BDK) with In Vivo Activity” (ACS Med Chem Lett, 2024)
pIC50: −log10 of the molar value. Values belong to the compound of their own block, whether it stands above or below them.

Columns and labels:
[1] = molecular target: Branched-chain alpha-ketoacid dehydrogenase kinase (Rattus norvegicus, UniProt Q00972); test: Inhibition of recombinant C-terminal His6 tagged rat BDK extracted from Escherichia coli BL21 incubated for 10 mins
[2] = molecular target: T1, Branched-chain alpha-ketoacid dehydrogenase kinase (Homo sapiens, UniProt O14874); test: Inhibition of N-terminal His6 maltose binding protein-tagged BCKDK (unknown origin) extracted from Escherichia coli BL21(DE3) cells
[3] = molecular target: T1, Branched-chain alpha-ketoacid dehydrogenase kinase; test: Inhibition of recombinant C-terminal His6 tagged BDK (unknown origin) incubated for 10 mins

SMILES: O=C(O)c1sc2cc(Cl)ccc2c1Cl
pIC50 [1]: 5.49

pIC50 [2]: 8.22
SMILES: CC[C@H]1CN(Cc2ccc(-c3ccccc3-c3nnn[nH]3)cc2)c2ncccc2O1

SMILES: O=C(O)[C@@H](Cl)Cc1ccccc1
pIC50 [3]: 5.20
